From PMC6268235, “A New Butanolide Compound from the Aerial Part of Lindera akoensis with Anti-inflammatory Activity” (Molecules, 2012)

Key:
[1] = tested on: LPS-stimulated production of nitrite in RAW264.7 cell; assay: Inhibition of LPS-stimulated nitrite (NO) production, Griess reaction; assay type: cell-based, murine; details: for IC50: Mus musculus, RAW264.7, RAW 264.7 cells, LPS 100 ng/mL, 24 h, Griess reaction, read-out: IC50 (decrease nitrite of LPS-stimulated production)
Text: NO, produced from L-arginine by NO synthase, has various biological actions, e.g., as a defense and regulatory molecule for homeostatic equilibrium. However, in pathophysiologic conditions, such as inflammation, there is an increased production of NO by inducible NO synthase (iNOS). Macrophages have been expected to be an origin of inflammation, because they contain various chemical mediators that may be responsible for several inflammatory stages. The inhibitory activity toward NO production, induced by lipopolysaccharides (LPS), by murine macrophage-derived RAW264.7 cells was assayed.
(§1) A murine macrophage cell line RAW264.7 (BCRC No. 60001) was purchased from the Bioresources Collection and Research Center (BCRC, Hsinchu, Taiwan) of the Food Industry Research and Development Institute (Hsinchu, Taiwan). Cells were cultured in plastic dishes containing Dulbecco’s Modified Eagle Medium (DMEM, Sigma, St. Louis, MO, USA) supplemented with 10% fetal bovine serum (FBS, Sigma) in a CO2 incubator (5% CO2 in air) at 37 °C and subcultured every 3 days at a dilution of 1:5 using 0.05% trypsin-0.02% EDTA in Ca^2+-, Mg^2+-free phosphate-buffered saline (DPBS).
NO production was indirectly assessed by measuring the nitrite levels in the cultured media and serum determined by a colorimetric method based on the Griess reaction. The cells were incubated with butanolides (0, 3.125, 6.25, 12.5, 25 and 50 μg/mL) in the presence of LPS (100 ng/mL) at 37 °C for 24 h. Then, cells were dispensed into 96-well plates, and 100 μL of each supernatant was mixed with the same volume of Griess reagent (1% sulfanilamide, 0.1% naphthylethylenediamine dihydrochloride and 5% phosphoric acid) and incubated at room temperature for 10 min, the absorbance was measured at 540 nm with a Micro-Reader (Molecular Devices). Serum samples were diluted four times with distilled water and deproteinized by adding 1/20 volume of zinc sulfate (300 g/L) to a final concentration of 15 g/L. After centrifugation at 10,000 × g for 5 min at room temperature, 100 μL supernatant was applied to a microtiter plate well, followed by 100 μL of Griess reagent. After 10 min of color development at room temperature, the absorbance was measured at 540 nm with a Micro-Reader. By using sodium nitrite to generate a standard curve, the concentration of nitrite was measured form absorbance at 540 nm.
IC50 values were estimated using a non-linear regression algorithm (Sigma Plot 8.0; SPSS Inc. Chicago, IL, USA). Statistical evaluation was carried out by one-way analysis of variance (ANOVA followed by Scheffe’s multiple range tests).

[2] = tested on: RAW264.7 cells; assay: Cell viability (MTT) in the presence of LPS; assay type: cell-based; details: RAW 264.7 cells, 100 ng/mL LPS, 24 h
Description: as §1
Cells (2 × 10^5) were cultured in 96-well plate containing DMEM supplemented with 10% FBS for 1 day to become nearly confluent. Then cells were cultured with compounds 1–5 in the presence of 100 ng/mL LPS (lipopolysaccharide) for 24 h. After that, the cells were washed twice with DPBS and incubated with 100 μL of 0.5 mg/mL MTT for 2 h at 37 °C testing for cell viability. The medium was then discarded and 100 μL dimethyl sulfoxide (DMSO) was added. After 30-min incubation, absorbance at 570 nm was read using a microplate reader (Molecular Devices, Sunnyvale, CA, USA).

SMILES | IC50 [1] | anti-inflammatory activity (in words) ([1]; RAW264.7 cells, LPS-stimulated nitrite production) | LD50 (cell viability) [2]
C=C1OC(=O)/C(=C/CCCCCCCCCCC)[C@H]1O [Compound 5, dihydroisoobtusilactone] | 97.9 µM | no significant active | >178.6 µM
C=CCCCCCCCCC/C=C1/C(=O)OC(C)[C@@H]1O (stereo partly drawn) [Compound 4, (3E,4α,5β)-3-(dodec-11-enylidene)-4-hydroxy-5-methylbutalactone] | 1.4 µM | – | 67.1 µM
C=CCCCCCCCCC/C=C1\C(=O)OC(C)[C@@H]1O (stereo partly drawn) [Compound 3, (3Z,4α,5β)-3-(dodec-11-enylidene)-4-hydroxy-5-methylbutalactone] | 2.4 µM | – | 49.3 µM
CCCCCCCCCCC=CC1C(=O)OC(C)C1O (stereo not drawn) [Compound 1, 3β-((E)-dodec-1-enyl)-4β-hydroxy-5β-methyldihydrofuran-2-one] | 44.3 µM | – | 72.3 µM
CCCCCCCCCCCC/C=C/C1=CC(C)OC1=O (centres unmarked) [Compound 2, Akolactone A] | 180 µM | – | >211.9 µM
